This is an account of results in US6780872B2, “Tricyclic dihydropyrazolone and tricyclic dihydroisoxazolone potassium channel openers” (Abbott Laboratories, priority 2000, dated 2004).

In this experiment the test system is guinea-pig urinary bladder (GPB) cells. Put plainly: Membrane hyperpolarization (MHP) assay, DiBAC(4)3 dye, FLIPR. The format is cell-based. As to conditions: Cavia porcellus; for Emax: maximal steady-state hyperpolarization in GPB cells, normalized to response with 10 μM P1075 (=100%); for EC50: membrane hyperpolarization in GPB cells, concentration eliciting 50% of the maximal response of the test sample. As to the method:
Compounds were evaluated for potassium channel opening activity using primary cultured guinea-pig urinary bladder (GPB) cells.
For the preparation of urinary bladder smooth muscle cells, urinary bladders were removed from male guinea-pigs (Hartley, Charles River, Wilmington, Mass.) weighing 300-400 g and placed in ice-cold Ca^2+-free Krebs solution (Composition, mM: KCl, 2.7; KH2PO4, 1.5; NaCl, 75; Na2HPO4, 9.6; Na2HPO4.7H2O, 8; MgSO4, 2; glucose, 5; HEPES, 10; pH 7.4). Cells were isolated by enzymatic dissociation as previously described with minor modifications in (Klockner, U. and Isenberg, G., Pflugers Arch. 1985, 405, 329-339), hereby incorporated by reference. The bladder was cut into small sections and incubated in 5 mL of the Kreb's solution containing 1 mg/mL collagenase (Sigma, St. Louis, Mo.) and 0.2 mg/mL pronase (Calbiochem, La Jolla, Calif.) with continuous stirring in a cell incubator for 30 minutes. The mixture was then centrifuged at 1300×g for 5 minutes, and the pellet resuspended in Dulbecco's PBS (GIBCO, Gaithersburg, Md.) and recentrifuged to remove residual enzyme. The cell pellet was resuspended in 5 mL growth media (composition: Dulbecco's modified Eagle's medium supplemented with 10% fetal bovine serum, 100 units/mL penicillin, 100 units/mL streptomycin and […] amphotericin B) and further dissociated by pipetting the suspension through a flame-polished Pasteur pipette and passing it through a polypropylene mesh membrane (Spectrum, Houston, Tex.). The cell density was adjusted to 100,000 cells/mL by resuspension in growth media. Cells were plated in clear-bottomed black 96-well plates (Packard) for membrane potential studies at a density of 20,000 cells/well and maintained in a cell incubator with 90% air: 10% CO2 until confluent. Cells were confirmed to be of smooth muscle type by cytoskeletal staining using a monoclonal mouse anti human-α-smooth muscle actin (Biomeda, Foster City, Calif.).
Functional activity at potassium channels was measured by evaluating changes in membrane potential using the bis-oxonol dye DiBAC(4)3 (Molecular Probes) in a 96-well cell-based kinetic assay system, Fluorescent Imaging Plate Reader (FLIPR) (K. S. Schroeder et al., J. Biomed. Screen., v. 1 pp. 7581 (1996)), hereby incorporated by reference. DiBAC(4) is an anionic potentiometric probe which partitions between cells and extracellular solution in a membrane potential-dependent manner. With increasing membrane potential (for example, K^+ depolarization), the probe further partitions into the cell; this is measured as an increase in fluorescence due to dye interaction with intracellular lipids and proteins. Conversely, decreasing membrane potential (hyperpolarization by potassium channel openers) evokes a decrease in fluorescence.
Confluent guinea-pig urinary bladder cells cultured in black clear-bottomed 96-well plates were rinsed twice with […] assay buffer (composition, mM: HEPES, 20; NaCl, 120; KCl, 2; CaCl2, 2; MgCl2, 1; glucose, 5; pH 7.4 at 25° C.) containing 5 μM DiBAC(4) and incubated with […] of the buffer in a cell incubator for 30 minutes at 37° C. to ensure dye distribution across the membrane. After recording the baseline fluorescence for 5 minutes, the reference or test compounds, prepared at 10 times the concentration in the assay buffer, were added directly to the wells. Changes in fluorescence were monitored for an additional 25 minutes. Hyperpolarization responses were corrected for any background noise and were normalized to the response observed with 10 μM of the reference compound P1075, N″-cyano-N-(tert-pentyl)-N′-(3-pyridinyl)guanidine, which was assigned as 100%. P1075 is a potent opener of smooth muscle KATP channels (Quast et al., Mol. Pharmacol., v. 43 pp. 474-481 (1993)) and was prepared using the procedures described in (Manley, J. Med. Chem. (1992) 35, 2327-2340), hereby incorporated by reference. […]

`Cn1[nH]c(=O)c2c1NC1=C(C(=O)C(C)(C)CC1)C2c1ccc(Cl)c(Cl)c1` (stereo not shown) [Example 24, 4-(3,4-dichlorophenyl)-1,6,6-trimethyl-4,7,8,9-tetrahydro-1H-pyrazolo[3,4-b]quinoline-3,5(2H,6H)-dione]: the Emax (usually the size of the effect at its maximum, as opposed to the concentration needed) was found to be 82% and it took 180 nM to reach a half-maximal effect (EC50).
On to `Cn1[nH]c(=O)c2c1NC1=C(C(=O)C(C)(C)CC1)C2c1ccc(F)c(-c2ccco2)c1` (stereo not shown) [Example 25, 4-[4-fluoro-3-(2-furyl)phenyl]-1,6,6-trimethyl-4,7,8,9-tetrahydro-1H-pyrazolo[3,4-b]quinoline-3,5(2H,6H)-dione], for which the Emax worked out at 78% and the EC50 (as a rule, the concentration needed to bring the measured effect to its halfway point) stood at 3200 nM.
For the compound `Cn1[nH]c(=O)c2c1NC1=C(C(=O)COC1)C2c1ccc(F)c(Br)c1` (stereo not shown) [Example 26, 4-(3-bromo-4-fluorophenyl)-1-methyl-1,2,4,9-tetrahydropyrano[3,4-b]pyrazolo[4,3-e]pyridine-3,5(6H,8H)-dione], the Emax stood at 99% and the EC50 came to 50 nM.
In the same order, the values of `Cn1[nH]c(=O)c2c1NC1=C(C(=O)OCC1)C2c1ccc(F)c(Br)c1` (stereo not shown) [Example 31, 4-(3-bromo-4-fluorophenyl)-1-methyl-1,2,4,7,8,9-hexahydropyrano[4,3-b]pyrazolo[4,3-e]pyridine-3,5-dione] are 96% and 760 nM.
In turn, `Cn1[nH]c(=O)c2c1NC1=C(C(=O)OC1)C2c1ccc(F)c(Br)c1` (stereo not shown) [Example 32, 4-(3-bromo-4-fluorophenyl)-1-methyl-4,8-dihydro-1H-furo[3,4-b]pyrazolo[4,3-e]pyridine-3,5(2H,7H)-dione] had an Emax of 73% and an EC50 of 520 nM.
